Test results reported in patent publication US20140163012A1, “PYRIDO-/AZEPINO-BENZOFURAN AND PYRIDO-/AZEPINO-BENZOTHIOPHENE MCH-1 ANTAGONISTS, METHODS OF MAKING, AND USE THEREOF” (Albany Molecular Research, Inc., priority 2012, published 2014).
Where a name gives a salt, the structure may show the parent alone.

Key:
[1] = target: human MCH-1 receptor (Homo sapiens, UniProt Q99705); assay: Binding assay for human melanin-concentrating hormone (MCH-1) receptor, radioligand displacement on CHO-K1 cell membranes; details: for inhibition at 1 µM: read-out: MCH1 % inhibition @ 1 uM
Sequence of human MCH-1 receptor (Q99705 whole entry): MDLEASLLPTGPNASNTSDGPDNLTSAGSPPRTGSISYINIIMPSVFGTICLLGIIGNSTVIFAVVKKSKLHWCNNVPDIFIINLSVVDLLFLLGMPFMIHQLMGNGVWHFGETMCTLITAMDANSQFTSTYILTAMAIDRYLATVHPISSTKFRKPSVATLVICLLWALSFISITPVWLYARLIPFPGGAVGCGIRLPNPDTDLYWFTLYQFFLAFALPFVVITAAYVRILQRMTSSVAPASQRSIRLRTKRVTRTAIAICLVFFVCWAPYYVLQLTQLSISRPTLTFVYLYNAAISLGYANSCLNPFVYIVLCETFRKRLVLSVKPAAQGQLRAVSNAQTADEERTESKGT

| Structure (SMILES) | melting point [°C] | Ki [1] [nM] | inhibition at 1 µM [1] [%] |
| --- | --- | --- | --- |
| Cl.O=c1cc(OCc2ccc(F)cn2)cnn1-c1ccc2c3c(oc2c1)CCNC3 [Example 50, 5-((5-Fluoropyridin-2-yl)methoxy)-2-(1,2,3,4-tetrahydrobenzofuro[3,2-c]pyridin-7-yl)pyridazin-3(2H)-one hydrochloride] | 268 to 269 | 36 | – |
| Cc1ccc(COc2ccn(-c3ccc4c5c(oc4c3)CCNC5)c(=O)c2)cn1.Cl [Example 51, 4-((6-Methylpyridin-3-yl)methoxy)-1-(1,2,3,4-tetrahydrobenzofuro[3,2-c]pyridin-7-yl)pyridin-2(1H)-one hydrochloride] | 227 to 233 | 145 | – |
| Cl.O=c1cc(OCc2ccc(C(F)(F)F)nc2)ccn1-c1ccc2c3c(oc2c1)CCNC3 [Example 52, 1-(1,2,3,4-Tetrahydrobenzofuro[3,2-c]pyridin-7-yl)-4-((6-(trifluoromethyl)pyridin-3-yl)methoxy)pyridin-2(1H)-one hydrochloride] | 278 to 280 | 73 | – |
| Cl.O=c1cc(OCc2ccccc2)ccn1-c1ccc2sc3c(c2c1)CCNC3 [Example 65, 4-Benzyloxy-1-(1,2,3,4-tetrahydrobenzo[4,5]thieno[2,3-c]pyridin-6-yl)pyridin-2(1H)-one hydrochloride] | 170 | 360 | – |
| Cl.O=c1cc(OCc2ccc(F)cn2)ccn1-c1ccc2sc3c(c2c1)CCNC3 [Example 66, 4-((5-Fluoropyridin-2-yl)methoxy)-1-(1,2,3,4-tetrahydrobenzo[4,5]thieno[2,3-c]pyridin-6-yl)pyridin-2(1H)-one hydrochloride] | 278 to 280 | – | 34 |
| Cl.O=c1cc(OCc2ccccc2)ccn1-c1ccc2sc3c(c2c1)CNCC3 [Example 67, 4-Benzyloxy-1-(1,2,3,4-tetrahydrobenzo[4,5]thieno[3,2-c]pyridin-8-yl)pyridin-2(1H)-one hydrochloride] | 245 to 247 | – | 31 |
| Cl.O=c1cc(OCc2ccc(F)cn2)ccn1-c1ccc2sc3c(c2c1)CNCC3 [Example 68, 4-(5-Fluoropyridin-2-yl)methoxy-1-(1,2,3,4-tetrahydrobenzo[4,5]thieno[3,2-c]pyridin-8-yl)pyridin-2(1H)-one hydrochloride] | 165 to 167 | – | 13 |
| Cl.O=c1cc(OCc2ccc(F)cn2)ccn1-c1ccc2sc3c(c2c1)CCNCC3 [Example 69, 4-(5-Fluoropyridin-2-yl)methoxy-1-(2,3,4,5-tetrahydro-1H-benzo[4,5]thieno[2,3-d]azepin-9-yl)pyridin-2(1H)-one hydrochloride] | 228 to 230 | – | 69 |
| Cl.O=C1CN(CCc2ccc(F)cn2)CCN1c1ccc2c3c(oc2c1)CCNC3 [Example 70, 4-(2-(5-Fluoropyridin-2-yl)ethyl)-1-(1,2,3,4-tetrahydrobenzofuro[3,2-c]pyridin-7-yl)piperazin-2-one hydrochloride] | 203 to 209 | – | 66 |
| Cl.O=c1cc(-c2ccc(C(F)(F)F)cc2)ccn1-c1ccc2c3c(oc2c1)CCNC3 [Example 71, 1-(1,2,3,4-Tetrahydrobenzofuro[3,2-c]pyridin-7-yl)-4-(4-(trifluoromethyl)phenyl)pyridin-2(1H)-one hydrochloride] | > 300 | 7.5 | – |
| Cl.O=c1cc(-c2ccc(C(F)(F)F)nn2)ccn1-c1ccc2c3c(oc2c1)CCNC3 [Example 88, 1-(1,2,3,4-Tetrahydrobenzofuro[3,2-c]pyridin-7-yl)-4-(6-(trifluoromethyl)pyridazin-3-yl)pyridin-2(1H)-one hydrochloride] | > 300 | – | 41 |
| Cl.O=C1CN(CCc2ccc(Cl)cn2)CCN1c1ccc2c3c(oc2c1)CCNC3 [Example 91, 4-(2-(5-Chloropyridin-2-yl)ethyl)-1-(1,2,3,4-tetrahydrobenzofuro[3,2-c]pyridin-7-yl)piperazin-2-one hydrochloride] | 220 to 223 | 84 | – |
| Cl.O=c1nc(CCc2ccc(Cl)cn2)ccn1-c1ccc2c3c(oc2c1)CCNC3 [Example 101, 4-(2-(5-Chloropyridin-2-yl)ethyl)-1-(1,2,3,4-tetrahydrobenzofuro[3,2-c]pyridin-7-yl)pyrimidin-2(1H)-one hydrochloride] | 155 to 160 | 20 | – |
| Cl.O=c1cc(CCc2ccc(F)cn2)ccn1-c1ccc2c3c(oc2c1)CCNC3 [Example 102, 4-(2-(5-Fluoropyridin-2-yl)ethyl)-1-(1,2,3,4-tetrahydrobenzofuro[3,2-c]pyridin-7-yl)pyridin-2(1H)-one hydrochloride] | 165 to 169 | 29 | – |
| Cl.O=c1cc(CCc2ccccc2)ccn1-c1ccc2c3c(oc2c1)CCNC3 [Example 104, 4-Phenethyl-1-(1,2,3,4-tetrahydrobenzofuro[3,2-c]pyridin-7-yl)pyridin-2(1H)-one hydrochloride] | 283 to 289 | 6.6 | – |
| Cl.O=c1cc(CCc2ccc(Cl)cn2)ccn1-c1ccc2c3c(oc2c1)CCNC3 [Example 105, 4-(2-(5-Chloropyridin-2-yl)ethyl)-1-(1,2,3,4-tetrahydrobenzofuro[3,2-c]pyridin-7-yl)pyridin-2(1H)-one hydrochloride] | 285 to 288 | 12 | – |
| COc1ccc(-c2ccn(-c3ccc4c5c(oc4c3)CCNC5)c(=O)c2)c(F)c1.Cl [Example 111, 4-(2-Fluoro-4-methoxyphenyl)-1-(1,2,3,4-tetrahydrobenzofuro[3,2-c]pyridin-7-yl)pyridin-2(1H)-one hydrochloride] | 282 to 284 | 16 | – |
| COc1ccc(-c2ccn(-c3ccc4c5c(oc4c3)CCNC5)c(=O)c2)c(Cl)c1.Cl [Example 112, 4-(2-Chloro-4-methoxyphenyl)-1-(1,2,3,4-tetrahydrobenzofuro[3,2-c]pyridin-7-yl)pyridin-2(1H)-one hydrochloride] | 294 to 297 | 6.9 | – |
| Cl.O=c1cc(OCc2ccc(C(F)(F)F)nn2)ccn1-c1ccc2c3c(oc2c1)CCNC3 [Example 113, 1-(1,2,3,4-Tetrahydrobenzofuro[3,2-c]pyridin-7-yl)-4-((6-(trifluoromethyl)pyridazin-3-yl)methoxy)pyridin-2(1H)-one hydrochloride] | 289 to 291 | 20 | – |
| O=c1cc(OCc2ccc(F)cn2)ccn1-c1ccc2c3c(oc2c1)CC1CCC3N1 (stereo not shown) [Example 129, 4-((5-Fluoropyridin-2-yl)methoxy)-1-(7,8,9,10-tetrahydro-6H-7,10-epiminocyclohepta[b]benzofuran-3-yl)pyridin-2(1H)-one hydrochloride] | – | 14 | – |

More lines, now with the values ahead:

| melting point [°C] | Ki [1] [nM] | inhibition at 1 µM [1] [%] | Structure (SMILES) |
| --- | --- | --- | --- |
| 299 to 301 | 7.3 | – | Cc1cc(OC(F)(F)F)ccc1-c1ccn(-c2ccc3c4c(oc3c2)CCNC4)c(=O)c1.Cl [Example 114, 4-(2-Methyl-4-(trifluoromethoxy)phenyl)-1-(1,2,3,4-tetrahydrobenzofuro[3,2-c]pyridin-7-yl)pyridin-2(1H)-one hydrochloride] |
| 176 to 178 | – | 7.7 | Cl.O=c1cc(OCc2ccccc2)ccn1-c1ccc2sc3c(c2c1)CNCCC3 [Example 118, 4-Benzyloxy-1-(2,3,4,5-tetrahydro-1H-benzo[4,5]thieno[3,2-c]azepin-9-yl)pyridin-2(1H)-one hydrochloride] |
| 170 to 172 | – | -2.6 | Cl.O=c1cc(OCc2ccc(F)cn2)ccn1-c1ccc2sc3c(c2c1)CNCCC3 [Example 119, 4-((5-Fluoropyridin-2-yl)methoxy)-1-(2,3,4,5-tetrahydro-1H-benzo[4,5]thieno[3,2-c]azepin-9-yl)pyridin-2(1H)-one hydrochloride] |
| 180 to 182 | – | 1.3 | Cl.O=c1cc(OCc2ccc(F)cn2)ccn1-c1ccc2sc3c(c2c1)CCCNC3 [Example 120, 4-(5-Fluoropyridin-2-ylmethoxy)-1-(2,3,4,5-tetrahydro-1H-benzo[4,5]thieno[2,3-c]azepin-7-yl)pyridin-2(1H)-one hydrochloride] |
| – | 3.7 | – | O=c1cc(OCc2ccc(F)cn2)ccn1-c1ccc2c3c(sc2c1)CCCNC3 [Example 124, 4-((5-Fluoropyridin-2-yl)methoxy)-1-(2,3,4,5-tetrahydro-1H-benzothieno[3,2-c]azepin-8-yl)pyridin-2(1H)-one hydrochloride] |
| – | 10 | – | O=c1cc(CCc2ccc(Cl)cn2)ccn1-c1ccc2c3c(sc2c1)CNCC3 [Example 125, 4-((5-Chloropyridin-2-yl)ethyl)-1-(1,2,3,4-tetrahydrobenzothieno[2,3-c]pyridin-7-yl)pyridin-2(1H)-one hydrochloride] |
| – | 20 | – | O=c1cc(CCc2ccc(F)cn2)ccn1-c1ccc2c3c(sc2c1)CNCC3 [Example 126, 4-((5-Fluoropyridin-2-yl)ethyl)-1-(1,2,3,4-tetrahydrobenzothieno[2,3-c]pyridin-7-yl)pyridin-2(1H)-one hydrochloride] |
| – | 6.2 | – | O=c1cc(CCc2ccccc2)ccn1-c1ccc2c3c(sc2c1)CNCC3 [Example 127, 4-Phenethyl-1-(1,2,3,4-tetrahydrobenzothieno[2,3-c]pyridin-7-yl)pyridin-2(1H)-one hydrochloride] |
| – | 11 | – | O=c1cc(OCc2ccccc2)ccn1-c1ccc2c3c(oc2c1)CC1CCC3N1 (stereo not shown) [Example 128, 4-(Benzyloxy)-1-(7,8,9,10-tetrahydro-6H-7,10-epiminocyclohepta[b]benzofuran-3-yl)pyridin-2(1H)-one hydrochloride] |
